We go through nine compounds from US7863446B2, “Heterocycles” (Orchid Research Laboratories Limited, priority 2006, dated 2011).

The target in one data set is T1, COX-2 (Homo sapiens, UniProt P35354).
T1 construct: Fresh blood was collected in tubes containing sodium heparin by vein puncture from healthy male volunteers; endogenous in cells; host or cells: human whole blood from healthy male volunteers, stimulated with LPS
T1 sequence (P35354 18-604): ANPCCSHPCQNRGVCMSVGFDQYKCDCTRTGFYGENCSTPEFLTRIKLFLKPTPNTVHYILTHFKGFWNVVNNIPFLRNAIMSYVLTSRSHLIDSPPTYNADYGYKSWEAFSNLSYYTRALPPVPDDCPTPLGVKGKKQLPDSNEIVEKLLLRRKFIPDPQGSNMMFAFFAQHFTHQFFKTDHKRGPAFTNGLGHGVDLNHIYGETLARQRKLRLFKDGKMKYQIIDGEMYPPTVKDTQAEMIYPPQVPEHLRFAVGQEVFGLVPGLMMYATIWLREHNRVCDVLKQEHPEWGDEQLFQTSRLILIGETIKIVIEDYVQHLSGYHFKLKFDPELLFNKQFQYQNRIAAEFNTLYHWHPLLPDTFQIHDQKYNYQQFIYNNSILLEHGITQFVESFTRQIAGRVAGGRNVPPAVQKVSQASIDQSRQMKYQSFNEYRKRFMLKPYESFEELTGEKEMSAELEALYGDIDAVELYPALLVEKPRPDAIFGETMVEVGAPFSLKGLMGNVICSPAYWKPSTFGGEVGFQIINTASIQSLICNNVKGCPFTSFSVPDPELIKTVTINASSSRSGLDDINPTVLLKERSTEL
The experiment in a line: Human whole blood assay (PGE-2 inhibition, COX-2). It counts as cell-based. Conditions: LPS stimulated human whole blood, NA = No activity, read-out: % PGE-2 Inhibition in hWBA. Here is the method:
In Vitro Evaluation of Cyclooxygenase-2 (Cox-2) Inhibition Activity
The COX-2 inhibition activities of the compounds illustrated in the examples were determined by the following method.
Human whole blood provides a protein and cell rich milieu appropriate for the study of the biochemical efficacy of anti-inflammatory compounds such as selective COX-2 inhibitors. […] This correlates with the observation that COX-2 inhibitors have no effect on prostaglandin E2 (PGE2) production in normal blood. These inhibitors were active only after incubation of human blood with lipopolysaccharide (LPS), which induces COX-2 production in the blood.
Fresh blood was collected in tubes containing sodium heparin by vein puncture from healthy male volunteers. The subjects should have no apparent inflammatory conditions and should have not taken NSAIDs for at least 7 days prior to blood collection. Blood was preincubated with aspirin in vitro (12 μg/ml, at time zero) to inactivate COX-1 for 6 hours. Then test compounds (at various concentrations) or vehicle were added to blood, the blood was stimulated with LPS B:4 (10 μg/ml) and incubated for another 18 hours at 37° C. water bath. After which the blood was centrifuged, plasma was separated and stored at −80° C. (J. Pharmacol. Exp. Ther, 271, 1705, 1994; Proc. Natl. Acad. Sci. USA, 96, 7563, 1999). The plasma was assayed for PGE2 using Cayman ELISA kit as per the procedure outlined by the manufacturer (Cayman Chemicals, Ann Arbor, USA).

Data set [1] deals with TNF-α. The experiment in a line: In vitro measurement of TNF-α in human PBMC (LPS stimulated). The data set is classed as cell-based. Conditions: for inhibition at 1 µM: NA = No activity, read-out: TNF-α Inhibition (%) at Conc. (1 μM); for inhibition at 10 µM: read-out: TNF-α Inhibition (%) at Conc. (10 μM). Here is the method:
In Vitro Measurement of Tumor Necrosis Factor Alpha (TNF-α)
This assay determines the effect of test compounds on the production of TNF α in human Peripheral Blood Mononuclear Cells (PBMC). Compounds were tested for their ability to inhibit the activity of TNF α in human PBMC. PBMC were isolated from blood (of healthy volunteers) using BD Vacutainer CPT™ (Cell preparation tube, BD Bio Science) and suspended in RPMI medium (Physiol. Res. 52: 593-598, 2003). The test compounds were pre-incubated with PBMC (0.5 million/incubation well) for 15 minutes at 37° C. and then stimulated with Lipopolysaccharide (Escherichia coli: B4; 1 μg/ml) for 18 hours at 37° C. in 5% CO2. The levels of TNF-α in the cell culture medium were estimated using enzyme-linked immunosorbent assay performed in a 96 well format as per the procedure of the manufacturer (Cayman Chemical, Ann Arbor, USA).

The next data set relates to IL-6. The experiment in a line: In vitro measurement of IL-6 in human PBMC (LPS stimulated). It counts as cell-based. As to the method:
In Vitro Measurement of Interleukin-6(IL-6)
This assay determins the effect of test compounds on the production of IL-6 in human PBMC (Physiol. Res. 52: 593-598, 2003). Compounds were tested for their ability to inhibit the activity of IL-6 in human PBMC. PBMC were isolated from blood using BD Vacutainer CPT™ Cell preparation tube (BD Bio Science) and suspended in RPMI medium. The test compounds were pre-incubated with PBMC (0.5 million/incubation well) for 15 minutes at 37° C. and then stimulated with Lipopolysaccharide (Escherichia coli: B4; 1 μg/ml) for 18 hours at 37° C. in 5% CO2. The levels of IL-6 in cell culture medium were estimated using enzyme-linked immunosorbent assay performed in a 96 well format as per the procedure of the manufacturer (Cayman Chemical, Ann Arbor, USA).

Data set [2] relates to TNF-α. The experiment in a line: LPS induced sepsis for measurement of TNF-α inhibition in mice. The data set is classed as in vivo. The settings on record: 50 mg/kg, oral, mice, serum 90 minutes after LPS. Here is the method:
LPS Induced Sepsis for Measurement of TNF-α Inhibition in Mice
The LPS induced sepsis model in mice was performed as described by Les sekut et al (J Lab Clin Med 1994; 124:813-20). Female Swiss albino mice were selected and the body weights were equivalent within each group. The mice were fasted for 20 hours with free access to water. The mice were dosed orally with the test compound suspended in vehicle containing 0.5% Tween 80 in 0.25% Carboxy-methylcellulose sodium salt. The control mice were administered the vehicle alone. After 30 minutes of oral dosing, mice were injected with 500 μg of Lipopolysaccharide (Escherichia coli, LPS: B4 from Siga) in phosphate buffer saline solution into the intraperitoneal cavity of the mice. After 90 minutes of LPS administration mice were bled via retro-orbital sinus puncture. Blood samples were stored overnight at 4° C. Serum samples were collected by centrifuging the samples at 4000 rpm for 15 minutes at 4° C. Immediately the serum samples were analysed for TNF-α levels using commercially available mouse TNF-α ELISA kit (Amersham Biosciences) and assay was performed by the manufacturer instruction.
ED50 Measurement of TNF alpha Inhibition in Mice Sepsis Model

For data set [3], the target named is purified recombinant COX-1 (Homo sapiens, UniProt P23219). The experiment in a line: COX-1 enzyme based assay. It counts as biochemical. Conditions: NA = No activity, read-out: % Inhibition in rEnzyme Assay COX-1. Here is the method: (§1) COX-1 and COX-2 Enzyme Based Assay
(§2) COX-1 and COX-2 enzyme based assays were carried out to check the inhibitory potential of the test compounds on the production of prostaglandin by purified recombinant COX-1/COX-2 enzyme (Proc. Nat. Acad. Sci. USA, 88, 2692-2696, 1991; J. Clin. Immunoassay 15, 116-120, 1992) In this assay, the potential of the test compound to inhibit the production of prostaglandin either by COX-1 or COX-2 from arachidonic acid (substrate) was measured. This was an enzyme based in-vitro assay to evaluate selective COX inhibition with good reproducibility.
(§3) Arachidonic acid was converted to PGH2 (Intermediate product) by COX1/COX-2 in the presence or absence of the test compound. The reaction was carried out at 37° C. and after 2 minutes it was stopped by adding 1M HCl. Intermediate product PGH2 was converted to a stable prostanoid product PGF2αby SnCl2 reduction. The amount of PGF2α, produced in the reaction was inversely proportional to the COX inhibitory potential of the test compound. The prostanoid product was quantified via enzyme immunoassay (EIA) using a broadly specific antibody that binds to all the major forms of prostaglandin, using Cayman ELISA kit as per the procedure outlined by the manufacturer (Cayman Chemicals, Ann Arbor, USA).

The target of data set [4] is T2, purified recombinant COX-2 (Homo sapiens, UniProt P35354).
T2 sequence (P35354 18-604): T1 sequence (P35354 18-604)
As to the kind of experiment: COX-2 enzyme based assay. The data set is classed as biochemical. The settings on record: NA = No activity, read-out: % Inhibition in rEnzyme Assay COX-2. Here is the method: as §1, §2, §3

In a further data set the test system is PDE4. The experiment in a line: PDE4 activity. It counts as biochemical. Conditions: source Human U937 cells. As to the method: PDE4 Activity PDE4 inhibition was measured by following a literature assay procedure (Cortizo J et al., Br J Pharmacol., 1993, 108: 562-568. The assay method involves the following conditions. • Source: Human U937 cells • Substrate: 1.01 μM [^3H] camp+camp • Vehicle: 1% DMSO • Pre-Incubation Time/Temperature: 15 minutes at 25° C. • Incubation Time/Temperature. 20 minutes at 25° C. • Incubation buffer: 50 mM Tris-HCl, pH 7.5, 5 mM MgCl2 • Quantitation method: Quantitation of [^3H] Adenosine • Significance criteria: >50% of max stimulation or inhibition The results are tabulated as shown in the table XIII.

Molecules are shown by their SMILES.

Chain of purified recombinant COX-1 (P23219 24-599): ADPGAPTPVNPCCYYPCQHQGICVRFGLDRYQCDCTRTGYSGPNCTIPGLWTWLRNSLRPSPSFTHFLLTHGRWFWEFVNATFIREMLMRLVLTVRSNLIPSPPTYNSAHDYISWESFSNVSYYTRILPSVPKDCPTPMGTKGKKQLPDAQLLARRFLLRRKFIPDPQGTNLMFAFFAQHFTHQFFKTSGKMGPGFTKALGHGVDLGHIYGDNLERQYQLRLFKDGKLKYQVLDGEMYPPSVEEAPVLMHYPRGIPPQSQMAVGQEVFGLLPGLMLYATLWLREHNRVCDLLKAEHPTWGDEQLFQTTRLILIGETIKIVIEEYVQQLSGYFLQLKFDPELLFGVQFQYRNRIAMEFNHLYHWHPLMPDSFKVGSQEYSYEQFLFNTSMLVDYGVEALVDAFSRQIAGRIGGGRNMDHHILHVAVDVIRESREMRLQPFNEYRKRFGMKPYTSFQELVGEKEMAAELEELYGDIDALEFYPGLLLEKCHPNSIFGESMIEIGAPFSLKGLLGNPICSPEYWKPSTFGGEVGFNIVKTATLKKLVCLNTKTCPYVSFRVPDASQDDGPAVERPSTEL

For orientation: inhibition means how much of the control response was suppressed. The melting point is the temperature of the solid-liquid transition. For `CS(=O)(=O)c1ccc(-c2nc(C(F)(F)F)nc(NN)c2-c2ccc(S(=O)(=O)NN)cc2)cc1` [Example 7, 4-{4-Hydrazino-6-[4-(methylsulfonyl)phenyl]-2-(trifluoromethyl)pyrimidin-5-yl}benzenesulfonohydrazide], the melting point fell in the range of 203 to 206 °C. At COX-2 (0.25 μM), the inhibition at 0.25 µM was found to be 26.2%. For the same compound, the inhibition at 1 µM at COX-2 (1 μM) is 1.9%.
`O=C(NNc1nc(C(F)(F)F)nc(-c2ccncc2)c1-c1ccc(F)cc1)C(F)(F)F` [Example 14, 2,2,2-Trifluoro-N′-[5-(4-fluorophenyl)-6-pyridin-4-yl-2-(trifluoromethyl)pyrimidin-4-yl]acetohydrazide] returned a melting point of 240 to 242 °C. Further, in the data set with TNF-α [1], the inhibition at 1 µM came to 25.5% and the inhibition at 10 µM was determined as 67.5%.
In the case of `CS(=O)(=O)c1ccc(-c2nc(C(F)(F)F)nc(OS(=O)(=O)c3cccc4ccccc34)c2-c2ccccc2)cc1` [Example 18, 6-[4-(Methylsulfonyl)phenyl]-5-phenyl-2-(trifluoromethyl)pyrimidin-4-ylnapthalenesulfonate], the melting point lay within 204 to 206 °C. For the same compound, the inhibition at 1 µM with IL-6 (1 μM, read-out: IL-6 Inhibition (%) Conc. (1 μM)) is 32.8%. Further, the inhibition at 10 µM in the data set with IL-6 (10 μM, read-out: IL-6 Inhibition (%) Conc. (10 μM)) is 41%.
As for `NS(=O)(=O)c1ccc(-c2c(-c3ccc(F)cc3)nc(C(F)(F)F)nc2N2CCNCC2)cc1` [Example 30, 4-[4-(4-Fluorophenyl)-6-piperazin-1-yl-2-(trifluoromethyl)pyrimidin-5-yl]benzenesulfonamide], in the data set on TNF-α [1], the inhibition at 1 µM turned out to be 43.2% and the inhibition at 10 µM was determined as 100%. In addition, in the data set with TNF-α [2], the “TNF-α Inhibition (%) at 50 mg/kg” value is 84.84%.
Consider `NS(=O)(=O)c1cccc(-c2c(-c3ccc(F)cc3)nc(C(F)(F)F)nc2N2CCN(c3ccccn3)CC2)c1` [Example 53, 3-[4-(4-Fluorophenyl)-6-(4-pyridin-2-ylpiperazin-1-yl)-2-(trifluoromethyl)pyrimidin-5-yl]benzenesulfonamide], for which the inhibition at 1 µM in data set [3] came to 46.3%; in data set [4], 20%. Also, the results for the inhibition at 10 µM in data set [3] and in data set [4] were 56.9% and 26.7%, respectively. The “TNF-α Inhibition (%) at 50 mg/kg” value in the data set with TNF-α [2] came to 70.93%.
With `NS(=O)(=O)c1cccc(-c2c(-c3ccc(F)cc3)nc(C(F)(F)F)nc2N2CCN(c3ncccn3)CC2)c1` [Example 54, 3-[4-(4-Fluorophenyl)-6-(4-pyrimidin-2-ylpiperazin-1-yl)-2-(trifluoromethyl)pyrimidin-5-yl]benzenesulfonamide], in data set [3], the inhibition at 1 µM worked out at 34.4% and the inhibition at 10 µM turned out to be 45.5%. In addition, the inhibition at 10 µM in data set [4] worked out at 13.7%. Moreover, the “TNF-α Inhibition (%) at 50 mg/kg” value with TNF-α [2] was 63.44%.
As to `NS(=O)(=O)c1cccc(-c2c(-c3ccccc3)nc(C(F)(F)F)nc2N2CCN(c3ncccn3)CC2)c1` [Example 57], the inhibition at 10 µM in data set [3] was 5.7%; in data set [4] it was 0.66%; in the data set on TNF-α [1], 88.9%. The figures for the inhibition at 1 µM (in data set [4]; in the data set on TNF-α [1]) were 8.29% and 84.5%, respectively. In addition, the “TNF-α Inhibition (%) at 50 mg/kg” value with TNF-α [2] is on record as 52.02%.
Consider `NS(=O)(=O)c1cccc(-c2c(-c3ccc(F)cc3)nc(C(F)(F)F)nc2N2CCN(S(=O)(=O)C(F)(F)F)CC2)c1` [Example 77, 5-(3-Aminosulfonylphenyl)-4-(4-fluorophenyl)-2-(trifluoromethyl)-6-{4-[(trifluoromethyl)sulfonyl]piperazin-1-yl}pyrimidine], for which, in the data set on PDE4, the “PDE4 inhibition at 10 μM (%)” value worked out at 94%.
Consider `NS(=O)(=O)c1cccc(-c2c(-c3ccccc3)nc(C(F)(F)F)nc2N2CCN(c3ccc(C(F)(F)F)cn3)CC2)c1` [Example 115], for which the inhibition at 1 µM in data set [3] is 6.29%; with TNF-α [1], 37.8%. Besides, the inhibition at 10 µM in data set [3] worked out at 19.2%; in data set [4], 7.03%; in the data set with TNF-α [1], 58.3%. In the data set with TNF-α [2], the “TNF-α Inhibition (%) at 50 mg/kg” value came out at 54.23%.
